Reference: patent US10538485B2, “Compounds for use as therapeutic agents affecting P53 expression and/or activity” (ABIVAX, priority 2011, dated 2020)

Legend:
Type in all cases: cell-based
[1] = tested on: p53 (wild-type p53 MCF7 cells); test: p53 and Δ133p53 mRNA level by RT-qPCR in MCF7 cells; details: 5 μM, 48 hours, vs DMSO
Protocol: (§1) The compounds of the invention have been tested according to the following pharmacological test and the three compounds have been more particularly tested: (40), (1) and (45), all diluted in DMSO. Their effects were thus compared to cells treated with DMSO. A positive control was used, TG003, a benzothiazole compound known to alter splicing through the inhibition of Clk/Sty family activity (Sigma, ref: T5575).
(§2) Two breast cancer cell lines have been treated with 5 μM of drugs for 48 hours: wild-type p53 MCF7 cells and mutant p53 (R280K) MDA-MB-231-Luc-D3H2N provided by Caliper Life Science (parental Line source: American Type Culture collection). The MDA-MB-231-Luc-D3H2N cells were maintained in two different media during treatment: a DMEM supplemented with 10% foetal calf serum (FCS) and a FCS-free medium for 24 hours followed by 24 hours in a complete medium. The MC7 cells were maintained in a DMEM/FCS 10% medium.
(§3) Cells were harvested after 48 hours of treatment. Total RNAs (RNeasy Mini-Kit, Qiagen) and proteins (NuPage LDS 1×, Invitrogen) were extracted to analyse mRNA expression by nested RT-PCR or RT-qPCR and protein expression by Western Blot.
(§4) Analysis of p53 expression was assessed both at mRNA (full-length and truncated, Δ133p53 isoforms) and protein (full-length) levels by RT-qPCR and Western Blot, respectively.
(§5) The p53 isoform cDNA being too long to be specifically quantified by RT-qPCR, a semi-quantitative RT-PCR method was therefore used, requiring high quality total RNA 28S/18S ratio (>1.5). After reverse-transcription of 500 ng of total RNA using random primers, actin cDNA was amplified by PCR to confirm reverse-transcription efficiency. 0.5 μg of total RNA from each tumour sample was reverse-transcribed (AMV RT, 45 C, random primer) and cDNA quality confirmed by amplification of actin by PCR in 30 cycles. p53 isoform cDNA was amplified by 2 nested PCR of 30 cycles using primers specific of each isoforms as described in Bourdon et al. (Genes Dev., 2005, 19: 2122). Tumours were considered to express each p53 isoform after sequencing of the corresponding PCR fragment.

[2] = tested on: p53 (wild-type p53 MCF7 cells); test: p53 protein expression by Western Blot (4 antibodies) in MCF7 cells; details: 5 μM, 48 hours, vs DMSO
Protocol: as §1, §2
Cells were harvested after 48 hours of treatment. […]
(§6) p53 protein expression was determined using a panel of 4 different antibodies, namely DO1, SAPLI, CMI and DO12 as described in Bourdon et al. (Genes Dev., 2005, 19: 2122), to avoid problem of detection due to post-translational modification.
The amount of total proteins in each extract was quantified using BCA kit (promega). […]
(§7) Scanned autoradiographs were quantified using AIDA/2D densitometry software.

[3] = tested on: p53-target genes Hdm2, Bcl-2, p21 (wild-type p53 MCF7 cells); test: p53 transcriptional activity: p53-target gene expression by Western-blot in MCF7 cells; details: 5 μM, 48 hours
Protocol: as §1, §2, §3
(§8) Analysis of p53 transcriptional activity was assessed through analysis of p53-target gene expression by Western-blot. Four p53-target genes were studied: Hdm2, Bcl-2, p21 and Bax. Hdm2 is known to bind p53 and to negatively regulate p53 activity and stability. p21 is known to mediate p53 dependent cycle arrest. Bcl 2 is known to have an anti-proliferative effect and an apoptotic protective effect, while Bax is known to have a pro-apoptic effect. Bax was not detected in both MCF7 and MDA-MB-231-Luc-D3H2N cells, while p21 was not detected in MDA-MB-231-Luc-D3H2N cells maintained in FCS-free medium. The Western-blot was performed as above described using the antibodies described in Bourdon et al., Genes Dev., 2005, 19: 2122.

[4] = tested on: p53 (mutant p53 (R280K) MDA-MB-231-Luc-D3H2N cells); test: p53 mRNA level by RT-qPCR in MDA-MB-231-Luc-D3H2N cells; details: 5 μM, 48 hours; for p53 expression at mRNA levels (total isoforms, TA): mutant p53 MDA-MB-231-Luc-D3H2N cells in normal medium
Protocol: as §1, §2, §3, §4, §5

[5] = tested on: p53 (mutant p53 (R280K) MDA-MB-231-Luc-D3H2N cells); test: p53 protein expression by Western Blot (4 antibodies) in MDA-MB-231-Luc-D3H2N cells; details: 5 μM, 48 hours
Protocol: as §1, §2, §3, §6
The amount of total proteins in each extract was quantified using BCA kit (promega). 8% SDS-PAGE gels were used. Equal amount (30 μg) of proteins was loaded on each lane. Proteins were then transferred electrophoretically on nitrocellulose membrane. Membranes were blocked in TBS/0.1% Tween 20 containing 3% milk for one hour and then incubated overnight with the primary antibodies diluted in TBS/0.1% Tween 20 containing 3% milk. After several washes in TBS/Tween, membranes were incubated with anti-rabbit Ig antibodies linked to HRP. Membranes were developed with ECL according to the manufacturer's instructions.
as §7

[6] = tested on: p53-target genes Hdm2, Bcl-2, p21 (mutant p53 MDA-MB-231-Luc-D3H2N cells); test: p53 transcriptional activity: p53-target gene expression by Western-blot in MDA-MB-231-Luc-D3H2N cells; details: 5 μM, 48 hours
Protocol: as §1, §2, §3, §8

[7] = tested on: p53 isoforms produced by alternative splicing (wild-type p53 MCF7 cells); test: p53 isoforms (α, β, γ) expression at mRNA level in MCF7 cells; details: 5 μM, 48 hours, RT-qPCR
Protocol: as §2, §3
(§9) Expression of p53 isoforms produced by alternative splicing (α, β and γ) was analysed at mRNA levels by RT-qPCR using primers/probe specific of each C-terminal variants. The α-forms are the most abundant forms. In the low abundant forms, β-forms are more expressed than γ-forms.
as §5, with “A semi-quantitative” for “The p53 isoform cDNA being too long to be specifically quantified by RT-qPCR, a semi-quantitative”, “method” for “method was therefore used,”, “RT, 45C,” for “RT, 45 C,”, “described by” for “described in”

[8] = tested on: p53 isoforms produced by alternative splicing (mutant p53 MDA-MB-231-Luc-D3H2N cells); test: p53 isoforms (α, β, γ) expression at mRNA level in MDA-MB-231-Luc-D3H2N cells; details: 5 μM, 48 hours, RT-qPCR
Protocol: as §2, §3, §9
as §5, with “A semi-quantitative” for “The p53 isoform cDNA being too long to be specifically quantified by RT-qPCR, a semi-quantitative”, “method” for “method was therefore used,”, “RT, 45C,” for “RT, 45 C,”, “described by” for “described in”

[9] = mutant p53 MDA-MB-231-Luc-D3H2N cells in FCS-free medium
[10] = mutant p53 MDA-MB-231-Luc-D3H2N cells in normal medium

SMILES: CCN(CC)CCCNC(=O)c1cccc(Nc2cccc(/C=C/c3ccc(OC)cc3)c2)c1 [Compound 40]
- total p53 expression (total isoforms, TA) at mRNA levels [1]: did not change
- Δ133p53 mRNA level [1]: increased
- p53 protein levels (full-length) [2]: decreased
- expression of Bcl-2 (p53-target gene) [3]: decreased expression
- expression of Hdm2 (p53-target gene) [3]: decreased expression
- p53 expression at mRNA levels (total isoforms, TA) [4]: decreased
- p53 protein levels (full-length) [5, 9]: did not change
- p53 protein levels (full-length) [5, 10]: did not change
- p53-target genes expression [6, 9]: did not affect
- p53-target genes expression [6, 10]: did not affect
- expression of p53 β-forms (mRNA) [7]: tend to increase
- expression of p53 γ-forms (mRNA) [7]: tend to increase
- p53 α-form expression at mRNA levels [7]: did not change
- p53 α-form expression at mRNA levels [8, 9]: did not change
- expression of p53 β-forms (mRNA) [8, 10]: tend to increase
- expression of p53 γ-forms (mRNA) [8, 10]: tend to increase
- p53 α-form expression at mRNA levels [8, 10]: did not change

SMILES: CCN(CC)CCNC(=O)c1ccccc1Nc1ccc(OC(F)(F)F)cc1 [Compound 45, N-(2-diethylamino-ethyl)-2-(4-trifluoromethoxy-phenylamino)-benzamide]
- total p53 expression (total isoforms, TA) at mRNA levels [1]: did not change
- p53 protein levels (full-length) [2]: decreased
- expression of Bcl-2 (p53-target gene) [3]: decreased expression
- expression of Hdm2 (p53-target gene) [3]: decreased expression
- p53 expression at mRNA levels (total isoforms, TA): decreased or not [4, 9]: decreased
- p53 expression at mRNA levels (total isoforms, TA) [4]: decreased
- p53 protein levels (full-length) [5, 9]: did not change
- p53 protein levels (full-length) [5, 10]: did not change
- expression of Bcl-2 (p53-target gene) [6, 9]: slight decrease
- p53-target genes expression [6, 10]: slight decrease
- expression of p53 β-forms (mRNA) [7]: tend to increase
- expression of p53 γ-forms (mRNA) [7]: tend to increase
- p53 α-form expression at mRNA levels [7]: did not change
- expression of p53 β-forms (mRNA) [8, 9]: tend to increase
- expression of p53 γ-forms (mRNA) [8, 9]: tend to increase
- p53 α-form expression at mRNA levels [8, 9]: did not change
- expression of p53 β-forms (mRNA) [8, 10]: tend to increase
- expression of p53 γ-forms (mRNA) [8, 10]: tend to increase
- p53 α-form expression at mRNA levels [8, 10]: did not change
- significant increase of p53 β-forms (mRNA) [8, 10]: 3 fold
- significant increase of p53 γ-forms (mRNA) [8, 10]: 2 fold
